# In patent US20020137929A1, “1 - (3-heterocyclylphenyl) isothiourea, -isourea, -guanidine and -amidine herbicidal agents” (Intellectual Property Department, BASF Aktiengesellschaft, priority 1998, published 2002):
# Columns and labels:
# [1] = system: SAGPY (Arrowhead (Pygmaea)); assay: Preemergence weed control under flooded paddy conditions; assay type: in vivo, Sagittaria pygmaea; conditions: rated 3-4 weeks after treatment
# Procedure, shortened: (§1)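 Ratings on a 0-9 visual scale cover stand, vigor, malformation, size, chlorosis and overall appearance relative to a control, taken three to four weeks post-treatment. Application was into flood water over freshly sown silt loam at roughly 0.0313 to 0.500 kg/ha.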
# ABUTH (Velvetleaf) [2] = assay: Preemergence herbicidal evaluation; assay type: in vivo, Abutilon theophrasti; conditions: rated 4-5 weeks after treatment, rating scale 0-9
# Procedure, shortened: (§2)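 Steps: mix seeds into potting soil; plant atop ~1 inch soil; spray compound in aqueous acetone (~0.0156-0.500 kg/ha equivalent); maintain in greenhouse with watering; rate visually 0-9 versus control at 4-5 weeks.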
# AMBEL (Ragweed, Common) = assay: Postemergence herbicidal evaluation; assay type: in vivo, Ambrosia artemisifolia; conditions: postemergence
# Procedure, shortened: (§3)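 Young plants, roughly two weeks from seeding, receive the active ingredient as a sprayed dispersion (acetone/water 50/50, 0.5% TWEEN 20) at 40 psi. Doses span about 0.0156 to 0.500 kg/ha. A visual score from 0 to 9 compares treated with control plants four to five weeks on.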
# ECHCG (Barnyardgrass) = assay: Postemergence herbicidal evaluation; assay type: in vivo, Echinochloa crus-galli; conditions: postemergence
# Procedure, shortened: as §3
# [3] = system: TRZAWR (Wheat, Winter, cv Riband); assay: Postemergence herbicidal evaluation; assay type: in vivo, Triticum aestivum; conditions: postemergence
# Procedure, shortened: as §3
# [4] = system: GLXMAW (Soybean, Williams); assay: Postemergence herbicidal evaluation; assay type: in vivo, Glycine max, (L.) Merr. cv Williams; conditions: postemergence
# Procedure, shortened: as §3
# MOOVA (Monochoria) = assay: Preemergence weed control under flooded paddy conditions; assay type: in vivo, Monochoria vaginalis; conditions: rated 3-4 weeks after treatment
# Procedure, shortened: as §1
# ABUTH (Velvetleaf) [5] = assay: Postemergence herbicidal evaluation; assay type: in vivo, Abutilon theophrasti; conditions: postemergence
# Procedure, shortened: as §3
# SETVI (Foxtail, Green) [6] = assay: Preemergence herbicidal evaluation; assay type: in vivo, Setaria viridis; conditions: rated 4-5 weeks after treatment, rating scale 0-9
# Procedure, shortened: as §2
# ORYSAT (Rice, Tebonnet) = assay: Postemergence herbicidal evaluation; assay type: in vivo, Oryza sativa, (L.) Tebonnet; conditions: postemergence
# Procedure, shortened: as §3
# CASOB (Sicklepod) = assay: Preemergence herbicidal evaluation; assay type: in vivo, Cassia obtusifolia; conditions: rated 4-5 weeks after treatment, rating scale 0-9
# Procedure, shortened: as §2
# SETVI (Foxtail, Green) [7] = assay: Postemergence herbicidal evaluation; assay type: in vivo, Setaria viridis; conditions: postemergence
# Procedure, shortened: as §3
compound,measurement,setting,value
"Cn1c(C(F)(F)F)cc(=O)n(-c2cc(N=C3SCC(=O)N3Cc3ccc(C(F)(F)F)cc3)c(Cl)cc2F)c1=O [Compound 141, 3-{4-Chloro-2-fluoro-5-{{3-[p-(trifluoromethyl)benzyl]-4-oxo-2-thiazolidinylidene}-amino}phenyl}-1-methyl-6-(trifluoromethyl)-2,4 (1H, 3H)-pyrimidinedione]","herbicidal effect rating, SAGPY",[1]; 0.0313 kg/ha,4.0
same,"herbicidal effect rating, SAGPY",[1]; 0.0625 kg/ha,5.0
same,"herbicidal effect rating, SAGPY",[1]; 0.1250 kg/ha,5.0
same,"herbicidal effect rating, SAGPY",[1]; 0.2500 kg/ha,6.0
same,Preemergence herbicidal rating ABUTH,ABUTH (Velvetleaf) [2]; rate 0.0156 kg/ha,0.0
same,Preemergence herbicidal rating ABUTH,ABUTH (Velvetleaf) [2]; rate 0.0313 kg/ha,0.0
same,Preemergence herbicidal rating ABUTH,ABUTH (Velvetleaf) [2]; rate 0.0625 kg/ha,0.0
same,Preemergence herbicidal rating ABUTH,ABUTH (Velvetleaf) [2]; rate 0.1250 kg/ha,4.0
same,Preemergence herbicidal rating ABUTH,ABUTH (Velvetleaf) [2]; rate 0.2500 kg/ha,9.0
same,Herbicidal rating AMBEL,"AMBEL (Ragweed, Common); rate 0.0156 kg/ha",7.0
same,Herbicidal rating AMBEL,"AMBEL (Ragweed, Common); rate 0.0313 kg/ha",7.0
same,Herbicidal rating AMBEL,"AMBEL (Ragweed, Common); rate 0.0625 kg/ha",9.0
same,Herbicidal rating ECHCG,ECHCG (Barnyardgrass); rate 0.0156 kg/ha,0.0
same,Herbicidal rating ECHCG,ECHCG (Barnyardgrass); rate 0.0313 kg/ha,0.0
same,Herbicidal rating ECHCG,ECHCG (Barnyardgrass); rate 0.0625 kg/ha,0.0
same,Herbicidal rating TRZAWR,[3]; rate 0.0156 kg/ha,3.0
same,Herbicidal rating TRZAWR,[3]; rate 0.0313 kg/ha,3.5
same,Herbicidal rating TRZAWR,[3]; rate 0.0625 kg/ha,4.5
same,Herbicidal rating GLXMAW,[4]; rate 0.0156 kg/ha,4.0
same,Herbicidal rating GLXMAW,[4]; rate 0.0313 kg/ha,4.0
same,Herbicidal rating GLXMAW,[4]; rate 0.0625 kg/ha,4.5
same,"herbicidal effect rating, MOOVA",MOOVA (Monochoria); 0.0313 kg/ha,7.0
same,"herbicidal effect rating, MOOVA",MOOVA (Monochoria); 0.0625 kg/ha,8.0
same,"herbicidal effect rating, MOOVA",MOOVA (Monochoria); 0.1250 kg/ha,8.0
same,"herbicidal effect rating, MOOVA",MOOVA (Monochoria); 0.2500 kg/ha,9.0
same,Herbicidal rating ABUTH,ABUTH (Velvetleaf) [5]; rate 0.0156 kg/ha,7.0
same,Herbicidal rating ABUTH,ABUTH (Velvetleaf) [5]; rate 0.0313 kg/ha,7.0
same,Herbicidal rating ABUTH,ABUTH (Velvetleaf) [5]; rate 0.0625 kg/ha,8.0
same,Preemergence herbicidal rating SETVI,"SETVI (Foxtail, Green) [6]; rate 0.0156 kg/ha",0.0
same,Preemergence herbicidal rating SETVI,"SETVI (Foxtail, Green) [6]; rate 0.0313 kg/ha",0.0
same,Preemergence herbicidal rating SETVI,"SETVI (Foxtail, Green) [6]; rate 0.0625 kg/ha",0.0
same,Preemergence herbicidal rating SETVI,"SETVI (Foxtail, Green) [6]; rate 0.1250 kg/ha",0.0
same,Preemergence herbicidal rating SETVI,"SETVI (Foxtail, Green) [6]; rate 0.2500 kg/ha",4.0
same,Herbicidal rating ORYSAT,"ORYSAT (Rice, Tebonnet); rate 0.0156 kg/ha",0.5
same,Herbicidal rating ORYSAT,"ORYSAT (Rice, Tebonnet); rate 0.0313 kg/ha",1.5
same,Herbicidal rating ORYSAT,"ORYSAT (Rice, Tebonnet); rate 0.0625 kg/ha",2.0
same,Preemergence herbicidal rating CASOB,CASOB (Sicklepod); rate 0.0156 kg/ha,0.0
same,Preemergence herbicidal rating CASOB,CASOB (Sicklepod); rate 0.0313 kg/ha,0.0
same,Preemergence herbicidal rating CASOB,CASOB (Sicklepod); rate 0.0625 kg/ha,0.0
same,Preemergence herbicidal rating CASOB,CASOB (Sicklepod); rate 0.1250 kg/ha,0.0
same,Preemergence herbicidal rating CASOB,CASOB (Sicklepod); rate 0.2500 kg/ha,3.0
same,Herbicidal rating SETVI,"SETVI (Foxtail, Green) [7]; rate 0.0156 kg/ha",0.0
same,Herbicidal rating SETVI,"SETVI (Foxtail, Green) [7]; rate 0.0313 kg/ha",0.0
same,Herbicidal rating SETVI,"SETVI (Foxtail, Green) [7]; rate 0.0625 kg/ha",0.0
